How the values were obtained:
[1] = target: T1, Protein cereblon/Focal adhesion kinase 1 (Homo sapiens) (UniProt Q05397+Q96SW2); experiment: Protac activity at CRBN/FAK in human PA-TU-8988T cells assessed as induction of FAK degradation at 10 nM incubated for 4 hrs by immunoblot assay relative to control; type: cell-based
[2] = target: T1, Protein cereblon/Focal adhesion kinase 1 (Homo sapiens); experiment: Protac activity at CRBN/FAK in human PA-TU-8988T cells assessed as induction of FAK degradation at 100 nM incubated for 4 hrs by immunoblot assay relative to control; type: cell-based

T1 sequence (Q05397 2-1052 limits assumed): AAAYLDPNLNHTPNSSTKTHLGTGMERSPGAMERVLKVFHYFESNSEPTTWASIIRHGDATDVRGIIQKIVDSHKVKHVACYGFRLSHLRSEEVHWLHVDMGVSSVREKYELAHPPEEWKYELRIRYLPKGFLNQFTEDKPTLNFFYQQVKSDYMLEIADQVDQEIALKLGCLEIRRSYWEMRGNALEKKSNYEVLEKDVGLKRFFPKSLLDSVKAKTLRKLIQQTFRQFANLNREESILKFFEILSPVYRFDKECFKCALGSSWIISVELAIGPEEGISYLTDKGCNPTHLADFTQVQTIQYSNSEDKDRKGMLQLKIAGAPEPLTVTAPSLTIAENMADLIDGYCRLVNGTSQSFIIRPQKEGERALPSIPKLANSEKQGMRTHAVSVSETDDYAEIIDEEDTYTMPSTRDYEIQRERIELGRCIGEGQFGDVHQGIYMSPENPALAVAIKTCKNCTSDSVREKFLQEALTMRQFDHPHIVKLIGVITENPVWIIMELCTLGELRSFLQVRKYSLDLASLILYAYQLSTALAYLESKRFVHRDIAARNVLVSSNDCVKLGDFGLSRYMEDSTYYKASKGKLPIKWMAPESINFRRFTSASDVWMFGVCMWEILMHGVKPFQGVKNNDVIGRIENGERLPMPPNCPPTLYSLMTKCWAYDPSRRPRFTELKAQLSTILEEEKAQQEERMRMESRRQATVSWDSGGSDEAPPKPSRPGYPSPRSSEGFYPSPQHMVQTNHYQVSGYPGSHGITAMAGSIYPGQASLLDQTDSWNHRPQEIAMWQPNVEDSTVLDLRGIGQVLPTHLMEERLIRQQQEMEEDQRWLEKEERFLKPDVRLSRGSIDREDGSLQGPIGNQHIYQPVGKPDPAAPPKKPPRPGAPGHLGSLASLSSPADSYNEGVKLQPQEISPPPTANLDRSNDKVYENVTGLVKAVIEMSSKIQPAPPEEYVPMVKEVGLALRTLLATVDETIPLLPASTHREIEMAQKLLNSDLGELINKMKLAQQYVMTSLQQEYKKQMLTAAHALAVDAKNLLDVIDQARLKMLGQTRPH
T1 sequence (Q96SW2 whole entry partner): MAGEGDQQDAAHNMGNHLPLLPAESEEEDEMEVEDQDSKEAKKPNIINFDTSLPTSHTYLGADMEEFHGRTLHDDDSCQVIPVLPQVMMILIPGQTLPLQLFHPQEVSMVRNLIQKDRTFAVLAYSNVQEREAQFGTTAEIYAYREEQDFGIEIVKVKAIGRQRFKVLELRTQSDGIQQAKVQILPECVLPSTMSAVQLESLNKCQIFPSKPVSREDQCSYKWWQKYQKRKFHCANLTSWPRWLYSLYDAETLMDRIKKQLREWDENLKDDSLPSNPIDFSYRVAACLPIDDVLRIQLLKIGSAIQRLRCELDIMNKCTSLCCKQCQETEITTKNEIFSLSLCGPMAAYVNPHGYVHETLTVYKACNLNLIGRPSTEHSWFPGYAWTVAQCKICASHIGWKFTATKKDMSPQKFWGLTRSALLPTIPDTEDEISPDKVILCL

Structure (SMILES) | Activity [1] [%] | Activity [2] [%]
CS(=O)(=O)c1cccc(CNc2nc(Nc3ccc(C(=O)NCCCCCCCCNC(=O)COc4cccc5c4C(=O)N(C4CCC(=O)NC4=O)C5=O)cc3)ncc2C(F)(F)F)c1 (configuration not stated) | 25 to 49 | 85 to 100
CNC(=O)c1ccccc1Nc1cc(Nc2cc(C)c(C3CCN(CCCCCCNC(=O)COc4cccc5c4C(=O)N(C4CCC(=O)NC4=O)C5=O)CC3)cc2OC(C)C)ncc1C(F)(F)F (configuration not stated) | 85 to 100 | 85 to 100
CNC(=O)c1ccccc1Nc1cc(Nc2ccc(N3CCN(CCOCCOCCNC(=O)CNc4cccc5c4C(=O)N(C4CCC(=O)NC4=O)C5=O)CC3)cc2OC)ncc1C(F)(F)F (configuration not stated) | 70 to 84 | 85 to 100
CNC(=O)c1ccccc1Nc1cc(Nc2ccc(N3CCN(CCCCCCCCNC(=O)CNc4cccc5c4C(=O)N(C4CCC(=O)NC4=O)C5=O)CC3)cc2OC)ncc1C(F)(F)F (configuration not stated) | 85 to 100 | 85 to 100
CNC(=O)c1ccccc1Nc1cc(Nc2ccc(N3CCN(CCCCCCNC(=O)COc4cccc5c4C(=O)N(C4CCC(=O)NC4=O)C5=O)CC3)cc2OC)ncc1C(F)(F)F (configuration not stated) | 85 to 100 | 85 to 100
CNC(=O)c1ccccc1Nc1cc(Nc2ccc(N3CCN(CCCCCCCCNc4cccc5c4C(=O)N(C4CCC(=O)NC4=O)C5=O)CC3)cc2OC)ncc1C(F)(F)F (configuration not stated) | 85 to 100 | 85 to 100

— ChEMBL document CHEMBL4619788, “Chemically Induced Degradation of FAK-ALK for Application in Cancer Therapeutics” (ACS Med Chem Lett, 2020)
